Assay results taken from PubChem BioAssay AID1259407 (Chemical Carcinogenesis Research Information System (CCRIS), 2018).
Activity calls are given as the source filed them. The rule behind the calls is not given here.

System: CCRIS mutagenicity, Ames/micronucleus/aberration tests
Experiment: CCRIS mutagenicity studies

## CCN(CC)N=O
Test System: AMES SALMONELLA TYPHIMURIUM, Strain/Indicator: TA2410, Metabolic Activation: NONE, Method: HOST-MEDIATED
  mutagenic call: active; positive
Test System: AMES SALMONELLA TYPHIMURIUM, Strain/Indicator: TA2678, Metabolic Activation: NONE, Method: HOST-MEDIATED
  mutagenic call: active; positive
Test System: AMES SALMONELLA TYPHIMURIUM, Strain/Indicator: YG1024, Metabolic Activation: NONE, Method: PREINCUBATION
  mutagenic call: inactive; negative
Test System: AMES SALMONELLA TYPHIMURIUM, Strain/Indicator: YG1024, Metabolic Activation: RAT LIVER S-9, AROCLOR, Method: PREINCUBATION
  mutagenic call: active; positive
Test System: AMES SALMONELLA TYPHIMURIUM, Strain/Indicator: YG7100, Metabolic Activation: S-9, Method: PREINCUBATION
  mutagenic call: inactive; negative
Test System: AMES SALMONELLA TYPHIMURIUM, Strain/Indicator: YG7104, Metabolic Activation: S-9, Method: PREINCUBATION
  mutagenic call: active; positive
Test System: AMES SALMONELLA TYPHIMURIUM, Strain/Indicator: YG7104ER, Metabolic Activation: NONE, Method: STANDARD PLATE
  mutagenic call: active; positive
Test System: AMES SALMONELLA TYPHIMURIUM, Strain/Indicator: YG7108-2A6-OR, Metabolic Activation: NONE, Method: PREINCUBATION
  mutagenic call: active; positive
Test System: AMES SALMONELLA TYPHIMURIUM, Strain/Indicator: YG7108-2A6, Metabolic Activation: NONE, Method: PREINCUBATION
  mutagenic call: active; positive
Test System: AMES SALMONELLA TYPHIMURIUM, Strain/Indicator: YG7108-PCW, Metabolic Activation: NONE, Method: PREINCUBATION
  mutagenic call: inactive; negative
Test System: AMES SALMONELLA TYPHIMURIUM, Strain/Indicator: YG7108, Metabolic Activation: RAT LIVER S-9, PHENOBARBITAL AND 5,6-BENZOFLAVONE, Method: PREINCUBATION
  mutagenic call: active; positive
Test System: AMES SALMONELLA TYPHIMURIUM, Strain/Indicator: YG7108, Metabolic Activation: S-9, Method: PREINCUBATION
  mutagenic call: active; positive
Test System: AMES SALMONELLA TYPHIMURIUM, Strain/Indicator: YG7108ER, Metabolic Activation: NONE, Method: STANDARD PLATE
  mutagenic call: active; positive
Test System: AMES SALMONELLA TYPHIMURIUM, Strain/Indicator: YG7112, Metabolic Activation: S-9, Method: PREINCUBATION
  mutagenic call: active; positive
Test System: AMES SALMONELLA TYPHIMURIUM, Strain/Indicator: YG7113, Metabolic Activation: S-9, Method: PREINCUBATION
  mutagenic call: active; positive
Test System: AMES SALMONELLA TYPHIMURIUM, Strain/Indicator: YG7119, Metabolic Activation: S-9, Method: PREINCUBATION
  mutagenic call: inactive; negative
Test System: Ames Salmonella typhimurium, Strain/Indicator: TA98, Metabolic Activation: None, Method: Preincubation
  mutagenic call: active; positive
Test System: Ames Salmonella typhimurium, Strain/Indicator: TA98, Metabolic Activation: Rat, Liver, S-9, Aroclor 1254 (4%), Method: Preincubation
  mutagenic call: active; positive
Test System: Ames Salmonella typhimurium, Strain/Indicator: TA98DNP6 (Acetyltransferase deficient), Metabolic Activation: None, Method: Preincubation
  mutagenic call: inactive; negative
Test System: Ames Salmonella typhimurium, Strain/Indicator: TA98DNP6 (Acetyltransferase deficient), Metabolic Activation: Rat, Liver, S-9, Aroclor 1254 (4%), Method: Preincubation
  mutagenic call: inactive; negative
Test System: Ames Salmonella typhimurium, Strain/Indicator: TA98NR, Metabolic Activation: None, Method: Preincubation
  mutagenic call: inactive; negative
Test System: Ames Salmonella typhimurium, Strain/Indicator: TA98NR, Metabolic Activation: Rat, Liver, S-9, Aroclor 1254 (4%), Method: Preincubation
  mutagenic call: inactive; negative
Test System: Ames Salmonella typhimurium, Strain/Indicator: YG1021, Metabolic Activation: None, Method: Preincubation
  mutagenic call: inactive; negative
Test System: Ames Salmonella typhimurium, Strain/Indicator: YG1021, Metabolic Activation: Rat, Liver, S-9, Aroclor 1254 (4%), Method: Preincubation
  mutagenic call: inactive; negative
Test System: Ames Salmonella typhimurium, Strain/Indicator: YG1024 (Acetyltransferase overproducing), Metabolic Activation: None, Method: Preincubation
  mutagenic call: inactive; negative
Test System: Ames Salmonella typhimurium, Strain/Indicator: YG1024 (Acetyltransferase overproducing), Metabolic Activation: Rat, Liver, S-9, Aroclor 1254 (4%), Method: Preincubation
  mutagenic call: active; positive
Test System: Ames Salmonella typhimurium, Strain/Indicator: YG1041 (Acetyltransferase and nitroreductase overproducing), Metabolic Activation: None, Method: Preincubation
  mutagenic call: inactive; negative
Test System: Ames Salmonella typhimurium, Strain/Indicator: YG1041 (Acetyltransferase and nitroreductase overproducing), Metabolic Activation: Rat, Liver, S-9, Aroclor 1254 (4%), Method: Preincubation
  mutagenic call: inactive; negative
Test System: Ames Salmonella typhimurium, Strain/Indicator: YG7108pin3ERb5, Metabolic Activation: None, Method: Standard plate
  mutagenic call: active; positive
Test System: CHINESE HAMSTER V-79, Strain/Indicator: V-79 (HPRT)/6-THIOGUANINE, Metabolic Activation: RAT, HEPATOCYTES
  mutagenic call: active; positive
Test System: CHINESE HAMSTER V-79, Strain/Indicator: V-79 (HPRT)/6-THIOGUANINE, Metabolic Activation: RAT, HEPATOMA, H4IIE CELLS
  mutagenic call: inactive; negative
Test System: CHINESE HAMSTER V-79, Strain/Indicator: V-79 (HPRT)/6-THIOGUANINE, Metabolic Activation: RAT, LIVER, S-9, AROCLOR 1254
  mutagenic call: active; positive
Test System: CHINESE HAMSTER V-79, Strain/Indicator: V-79/8-AZAGUANINE, Metabolic Activation: RAT, LIVER, S-15, PHENOBARBITAL, Method: STANDARD PLATE
  mutagenic call: active; positive
Test System: CHINESE HAMSTER V-79, Strain/Indicator: V-79/OUABAIN, Metabolic Activation: CELL-MEDIATED, Method: STANDARD PLATE
  mutagenic call: active; positive
Test System: CHINESE HAMSTER V-79, Strain/Indicator: V-79/OUABAIN, Metabolic Activation: HAMSTER, HEPATOCYTES, Method: CELL-MEDIATED
  mutagenic call: active; positive
Test System: E. COLI, Strain/Indicator: WP2 (HCR-), Metabolic Activation: RAT, LIVER, MICROSOMES, PHENOBARBITAL
  mutagenic call: active; positive
Test System: E. COLI, Strain/Indicator: WP2 UVRA, Metabolic Activation: HAMSTER, LIVER, S-9, AROCLOR 1254, Method: PREINCUBATION
  mutagenic call: active; positive
Test System: E. COLI, Strain/Indicator: WP2 UVRA, Metabolic Activation: HAMSTER, LIVER, S-9, AROCLOR 1254, Method: STANDARD PLATE
  mutagenic call: inactive; negative
Test System: E. COLI, Strain/Indicator: WP2 UVRA, Metabolic Activation: HAMSTER, LIVER, S-9, Method: PREINCUBATION
  mutagenic call: active; positive
Test System: E. COLI, Strain/Indicator: WP2 UVRA, Metabolic Activation: HAMSTER, LIVER, S-9, Method: STANDARD PLATE
  mutagenic call: inactive; negative
Test System: E. COLI, Strain/Indicator: WP2 UVRA, Metabolic Activation: MOUSE, LIVER, S-9, AROCLOR 1254, Method: STANDARD PLATE
  mutagenic call: inactive; negative
Test System: E. COLI, Strain/Indicator: WP2 UVRA, Metabolic Activation: MOUSE, LIVER, S-9, Method: STANDARD PLATE
  mutagenic call: inactive; negative
Test System: E. COLI, Strain/Indicator: WP2 UVRA, Metabolic Activation: NONE, Method: STANDARD PLATE
  mutagenic call: inactive; negative
Test System: E. COLI, Strain/Indicator: WP2 UVRA, Metabolic Activation: RAT, LIVER, S-9, Method: PREINCUBATION
  mutagenic call: inactive; negative
Test System: E. COLI, Strain/Indicator: WP2 UVRA, Metabolic Activation: RAT, LIVER, S-9, Method: STANDARD PLATE
  mutagenic call: inactive; negative
Test System: MOUSE LYMPHOMA, Strain/Indicator: L5178Y (TK+/TK-), Metabolic Activation: RAT, LIVER, S-9, AROCLOR 1254, Method: SUSPENSION/PLATE
  mutagenic call: active; positive
Test System: UDS RAT HEPATOCYTES, Strain/Indicator: THY INCORP, Metabolic Activation: NONE, Method: LIQUID SCINTILLATION COUNTING
  mutagenic call: active; positive
Test System: UDS RODENT HEPATOCYTES, Strain/Indicator: THY INCORP (NON-S-PHASE), Method: AUTORADIOGRAPHY
  mutagenic call: active; positive
